Measurements reported in ChEMBL document CHEMBL3588788, “Structure-activity relationship of hybrids of Cinchona alkaloids and bile acids with in vitro antiplasmodial and antitrypanosomal activities” (Eur J Med Chem, 2015).

How the values were obtained:
in vitro = settings: human, WI38 cells
Description: Selectivity index, ratio of IC50 against human WI38 cells to IC50 for Trypanosoma brucei brucei Lister 427 bloodstream forms

Plasmodium falciparum [1] = assay: Antiplasmodial activity against Plasmodium falciparum 3D7 assessed as reduction in parasite viability by parasite lactate dehydrogenase assay; format: functional, organism-based
[2] = Selectivity index, ratio of IC50 against human WI38 cells to IC50 for Plasmodium falciparum 3D7; format: toxicity, cell-based, WI-38; settings: read-out: Ratio IC50
[3] = Cytotoxicity against human WI38 cells by MTT assay; format: cell-based, WI-38; settings: Homo sapiens, WI-38; read-out: IC50
[4] = tested on: Trypanosoma brucei brucei; assay: Antitrypanosomal activity against Trypanosoma brucei brucei Lister 427 bloodstream forms by microtiter plate based assay; format: functional, organism-based
Plasmodium falciparum [5] = assay: Potency index, ratio of IC50 for QND to IC50 for test compound against Plasmodium falciparum 3D7 by parasite lactate dehydrogenase assay; format: functional
[6] = tested on: Trypanosoma brucei brucei; assay: Potency index, ratio of IC50 for QND to IC50 for test compound against Trypanosoma brucei brucei Lister 427 bloodstream forms by microtiter plate based assay; format: functional
[7] = tested on: Trypanosoma brucei brucei; assay: Potency index, ratio of IC50 for CN to IC50 for test compound against Trypanosoma brucei brucei Lister 427 bloodstream forms by microtiter plate based assay; format: functional
Plasmodium falciparum [8] = assay: Potency index, ratio of IC50 for CN to IC50 for test compound against Plasmodium falciparum 3D7 by parasite lactate dehydrogenase assay; format: functional
[9] = tested on: Trypanosoma brucei brucei; assay: Potency index, ratio of IC50 for QN to IC50 for test compound against Trypanosoma brucei brucei Lister 427 bloodstream forms by microtiter plate based assay; format: functional
Plasmodium falciparum [10] = assay: Potency index, ratio of IC50 for QN to IC50 for test compound against Plasmodium falciparum 3D7 by parasite lactate dehydrogenase assay; format: functional

| SMILES | selectivity ratio (in vitro) | IC50 (Plasmodium falciparum [1]) | selectivity ratio [2] | IC50 [3] | IC50 [4] | Ratio IC50 (Plasmodium falciparum [5]) | Ratio IC50 [6] | Ratio IC50 [7] | Ratio IC50 (Plasmodium falciparum [8]) | Ratio IC50 [9] | Ratio IC50 (Plasmodium falciparum [10]) |
| --- | --- | --- | --- | --- | --- | --- | --- | --- | --- | --- | --- |
| C=C[C@H]1CN2CC[C@H]1C[C@@H]2[C@@H](O)c1cc(CC[C@@H](C)[C@H]2CC[C@H]3[C@@H]4CC[C@@H]5C[C@H](OC(C)=O)CC[C@]5(C)[C@H]4C[C@H](OC(C)=O)[C@]23C)nc2ccc(OC)cc12 | 7.7 | 195 nM | 27 | 5330 nM | 690 nM | 1 | 37.5 |  |  |  |  |
| C=C[C@H]1CN2CC[C@H]1C[C@@H]2[C@@H](O)c1cc(CC[C@@H](C)[C@H]2CC[C@H]3[C@@H]4C[C@H](O)[C@@H]5C[C@H](O)CC[C@]5(C)[C@H]4CC[C@]23C)nc2ccc(OC)cc12 | 2.5 | 124 nM | 18 | 2200 nM | 890 nM | 1.6 | 29.2 |  |  |  |  |
| C=C[C@H]1CN2CC[C@H]1C[C@@H]2[C@@H](O)c1cc(CC[C@@H](C)[C@H]2CC[C@H]3[C@@H]4CC[C@@H]5C[C@H](OC(C)=O)CC[C@]5(C)[C@H]4C[C@H](OC(C)=O)[C@]23C)nc2ccccc12 | 3.2 | 171 nM | 28.1 | 4800 nM | 1510 nM |  |  | 45.1 | 1.7 |  |  |
| C=C[C@H]1CN2CC[C@H]1C[C@@H]2[C@@H](O)c1cc(CC[C@@H](C)[C@H]2CC[C@H]3[C@@H]4[C@H](O)C[C@@H]5C[C@H](O)CC[C@]5(C)[C@H]4C[C@H](O)[C@]23C)nc2ccc(OC)cc12 | 9.8 | 700 nM | 17 | 11800 nM | 1210 nM | 0.3 | 21.6 |  |  |  |  |
| C=C[C@H]1CN2CC[C@H]1C[C@@H]2[C@@H](O)c1cc(CC[C@@H](C)[C@H]2CC[C@H]3[C@@H]4[C@H](O)[C@H](O)[C@@H]5C[C@H](O)CC[C@]5(C)[C@H]4CC[C@]23C)nc2ccccc12 | 3.1 | 183 nM | 31 | 5680 nM | 1810 nM |  |  | 37.6 | 1.6 |  |  |
| C=C[C@H]1CN2CC[C@H]1C[C@@H]2[C@@H](O)c1cc(CC[C@@H](C)[C@H]2CC[C@H]3[C@@H]4[C@H](OC(C)=O)[C@H](OC(C)=O)[C@@H]5C[C@H](OC(C)=O)CC[C@]5(C)[C@H]4CC[C@]23C)nc2ccccc12 | 8.3 | 40.8 nM | 102 | 4170 nM | 510 nM |  |  | 134.6 | 7.2 |  |  |
| C=C[C@H]1CN2CC[C@H]1C[C@@H]2[C@@H](O)c1cc(CC[C@@H](C)[C@H]2CC[C@H]3[C@@H]4[C@H](OC(C)=O)[C@H](OC(C)=O)[C@@H]5C[C@H](OC(C)=O)CC[C@]5(C)[C@H]4CC[C@]23C)nc2ccc(OC)cc12 | 5.8 | 73.2 nM | 45 | 3290 nM | 560 nM | 2.7 | 46.2 |  |  |  |  |
| C=C[C@H]1CN2CC[C@H]1C[C@@H]2[C@@H](O)c1cc(CC[C@@H](C)[C@H]2CC[C@H]3[C@@H]4C[C@H](O)[C@@H]5C[C@H](O)CC[C@]5(C)[C@H]4CC[C@]23C)nc2ccccc12 | 7.6 | 71.6 nM | 77 | 5490 nM | 720 nM |  |  | 94.5 | 4.1 |  |  |
| C=C[C@H]1CN2CC[C@H]1C[C@@H]2[C@@H](O)c1cc(CC[C@@H](C)[C@H]2CC[C@H]3[C@@H]4[C@H](O)C[C@@H]5C[C@H](O)CC[C@]5(C)[C@H]4C[C@H](O)[C@]23C)nc2ccccc12 | 5.2 | 592 nM | 10 | 5680 nM | 1100 nM |  |  | 61.8 | 0.5 |  |  |
| C=C[C@H]1CN2CC[C@H]1C[C@@H]2[C@@H](O)c1cc(CC[C@@H](C)[C@H]2CC[C@H]3[C@@H]4CC[C@@H]5C[C@H](O)CC[C@]5(C)[C@H]4C[C@H](O)[C@]23C)nc2ccccc12 | 5 | 134 nM | 22 | 2980 nM | 600 nM |  |  | 113.1 | 2.2 |  |  |
| C=C[C@H]1CN2CC[C@H]1C[C@@H]2[C@@H](O)c1cc(CC[C@@H](C)[C@H]2CC[C@H]3[C@@H]4[C@H](OC(C)=O)C[C@@H]5C[C@H](OC(C)=O)CC[C@]5(C)[C@H]4C[C@H](OC(C)=O)[C@]23C)nc2ccc(OC)cc12 | 8.7 | 83.8 nM | 56 | 4660 nM | 530 nM | 2.3 | 48.8 |  |  |  |  |
| C=C[C@H]1CN2CC[C@H]1C[C@H]2[C@H](O)c1cc(CC[C@@H](C)[C@H]2CC[C@H]3[C@@H]4C[C@H](O)[C@@H]5C[C@H](O)CC[C@]5(C)[C@H]4CC[C@]23C)nc2ccc(OC)cc12 | 7 | 224 nM | 21 | 4600 nM | 650 nM |  |  |  |  | 32.4 | 2.8 |
| C=C[C@H]1CN2CC[C@H]1C[C@H]2[C@H](O)c1cc(CC[C@@H](C)[C@H]2CC[C@H]3[C@@H]4[C@H](OC(C)=O)C[C@@H]5C[C@H](OC(C)=O)CC[C@]5(C)[C@H]4C[C@H](OC(C)=O)[C@]23C)nc2ccc(OC)cc12 | 9.3 | 43.5 nM | 103 | 4470 nM | 480 nM |  |  |  |  | 44.1 | 14.6 |
| C=C[C@H]1CN2CC[C@H]1C[C@H]2[C@H](O)c1cc(CC[C@@H](C)[C@H]2CC[C@H]3[C@@H]4[C@H](O)[C@H](O)[C@@H]5C[C@H](O)CC[C@]5(C)[C@H]4CC[C@]23C)nc2ccc(OC)cc12 | 7.3 | 275 nM | 20 | 5550 nM | 760 nM |  |  |  |  | 27.8 | 2.3 |
| C=C[C@H]1CN2CC[C@H]1C[C@H]2[C@H](O)c1cc(CC[C@@H](C)[C@H]2CC[C@H]3[C@@H]4CC[C@@H]5C[C@H](O)CC[C@]5(C)[C@H]4C[C@H](O)[C@]23C)nc2ccc(OC)cc12 | 8.2 | 241 nM | 22 | 5200 nM | 640 nM |  |  |  |  | 33.3 | 2.6 |
| C=C[C@H]1CN2CC[C@H]1C[C@@H]2[C@@H](O)c1cc(CC[C@@H](C)[C@H]2CC[C@H]3[C@@H]4CC[C@@H]5C[C@H](O)CC[C@]5(C)[C@H]4C[C@H](O)[C@]23C)nc2ccc(OC)cc12 | 7.1 | 281 nM | 15 | 4300 nM | 610 nM | 0.7 | 42.7 |  |  |  |  |
| C=C[C@H]1CN2CC[C@H]1C[C@@H]2[C@@H](O)c1cc(CC[C@@H](C)[C@H]2CC[C@H]3[C@@H]4[C@H](O)[C@H](O)[C@@H]5C[C@H](O)CC[C@]5(C)[C@H]4CC[C@]23C)nc2ccc(OC)cc12 | 6.2 | 170 nM | 27.9 | 4750 nM | 770 nM | 1.1 | 33.9 |  |  |  |  |
| C=C[C@H]1CN2CC[C@H]1C[C@@H]2[C@@H](O)c1cc(CC[C@@H](C)[C@H]2CC[C@H]3[C@@H]4C[C@H](OC(C)=O)[C@@H]5C[C@H](OC(C)=O)CC[C@]5(C)[C@H]4CC[C@]23C)nc2ccc(OC)cc12 | 3.1 | 155 nM | 29 | 4490 nM | 1470 nM | 1.3 | 17.7 |  |  |  |  |
| C=C[C@H]1CN2CC[C@H]1C[C@H]2[C@H](O)c1cc(CC[C@@H](C)[C@H]2CC[C@H]3[C@@H]4[C@H](O)C[C@@H]5C[C@H](O)CC[C@]5(C)[C@H]4C[C@H](O)[C@]23C)nc2ccc(OC)cc12 | 12.3 | 1820 nM | 11 | 19300 nM | 1570 nM |  |  |  |  | 13.5 | 0.3 |
| C=C[C@H]1CN2CC[C@H]1C[C@H]2[C@H](O)c1cc(CC[C@@H](C)[C@H]2CC[C@H]3[C@@H]4C[C@H](OC(C)=O)[C@@H]5C[C@H](OC(C)=O)CC[C@]5(C)[C@H]4CC[C@]23C)nc2ccc(OC)cc12 | 3.9 | 460 nM | 13 | 5860 nM | 1490 nM |  |  |  |  | 14.3 | 1.4 |
